According to DBAASP:
Values after ≈ are worked out from the molar mass of the structure shown. One block for each molecule: values may come before it.

Tests used:
Assay in all cases: ≥ marks a high value that may be exact or a test limit, other limits are often not marked, values filed in µg/mL are converted to µM
Listeria ivanovii = test system: Listeria ivanovii
[1] = test system: Candida parapsilosis ATCC 22019
[2] = test system: Candida albicans ATCC 90028
[3] = test system: Staphylococcus aureus ATCC 25923
Saccharomyces cerevisiae = test system: Saccharomyces cerevisiae
[4] = test system: Staphylococcus aureus ATCC BAA-44
[5] = test system: Pseudomonas aeruginosa ATCC 27853
[6] = test system: Klebsiella pneumoniae ATCC 13883
[7] = test system: Acinetobacter baumannii ATCC 19606
[8] = test system: Escherichia coli ATCC 25922
[9] = test system: Enterococcus faecalis ATCC 29212
[10] = test system: Streptococcus pyogenes ATCC 19615
[11] = test system: Streptococcus sp. Group G
[12] = test system: Staphylococcus haemolyticus
[13] = test system: Staphylococcus saprophyticus
Escherichia coli = test system: Escherichia coli
[14] = test system: Escherichia coli ATCC 35218
Streptococcus pyogenes = test system: Streptococcus pyogenes
Pseudomonas aeruginosa = test system: Pseudomonas aeruginosa
[15] = test system: Staphylococcus aureus ATCC 43300
[16] = test system: Streptococcus sp. Group C
Escherichia coli ESBL = test system: Escherichia coli ESBL
[17] = test system: Staphylococcus aureus ATCC 29213
[18] = test system: Staphylococcus epidermidis
Staphylococcus aureus = test system: Staphylococcus aureus
[19] = test system: Pseudomonas aeruginosa ATCC 15442
[20] = test system: Enterobacter cloacae ATCC 13047
[21] = test system: Listeria monocytogenes ATCC 15313
[22] = test system: Psychrobacter sp. PAMC 21119
[23] = test system: Burkholderia cepacia ATCC 25416
[24] = test system: Candida glabrata ATCC 2001
[25] = test system: Flavobacterium sp. PAMC 22217
[26] = test system: Shigella sonnei ATCC 29930
[27] = test system: Candida tropicalis ATCC 20115
[28] = test system: Lacinutrix algicola AKS293T
[29] = test system: Escherichia coli DH5alpha
[30] = test system: Staphylococcus aureus ATCC 33591
[31] = test system: Candida albicans LABMIC 0107
[32] = test system: Candida tropicalis LABMIC 0109
Klebsiella pneumoniae = test system: Klebsiella pneumoniae
[33] = test system: Papiliotrema laurentii LABMIC 0404
[34] = test system: Microsporum canis LABMIC 0401
[35] = test system: Klebsiella pneumoniae KpC+001825971
[36] = test system: Trichophyton rubrum LABMIC 0203
[37] = test system: Candida tropicalis LABMIC 0112
[38] = test system: Escherichia coli KpC+001812446
Candida krusei ATCC 6258 = test system: Candida krusei ATCC 6258
Acinetobacter baumannii = test system: Acinetobacter baumannii
Enterococcus faecalis = test system: Enterococcus faecalis
[39] = test system: Candida parapsilosis LABMIC 0113
[40] = test system: Bacillus subtilis ATCC 19659
[41] = test system: Cryptococcus neoformans ATCC 90012

Compound: CC[C@H](C)[C@H](NC(=O)[C@H](CCCN=C(N)N)NC(=O)[C@H](CCCN=C(N)N)NC(=O)[C@H](CC(C)C)NC(=O)[C@H](Cc1ccccc1)NC(=O)[C@H](Cc1ccccc1)NC(=O)[C@@H](N)Cc1ccccc1)C(=O)N[C@@H](Cc1ccccc1)C(=O)O [FFFLRRIF]
MIC (Listeria ivanovii): ≥ 100 µM | MIC [1]: ≥ 100 µM | MIC [2]: ≥ 100 µM | MIC [3]: 100 µM (≈ 115 µg/mL) | MIC (Saccharomyces cerevisiae): ≥ 100 µM | MIC [4]: ≥ 100 µM | MIC [5]: > 100 µM | MIC [6]: ≥ 100 µM | MIC [7]: > 100 µM | MIC [8]: > 100 µM | MIC [9]: > 100 µM | MIC [10]: ≥ 50 µM

Compound: NC(=O)[C@H](Cc1c[nH]c2ccccc12)NC(=O)[C@H](Cc1c[nH]c2ccccc12)NC(=O)[C@H](Cc1c[nH]c2ccccc12)NC(=O)[C@H](Cc1c[nH]c2ccccc12)NC(=O)[C@@H]1CCCN1C(=O)[C@H](CCCN=C(N)N)NC(=O)[C@@H]1CCCN1C(=O)[C@H](CCCN=C(N)N)NC(=O)[C@@H]1CCCN1C(=O)[C@H](CCCN=C(N)N)NC(=O)[C@@H]1CCCN1C(=O)[C@H](CCCN=C(N)N)NC(=O)[C@@H](N)CCCN=C(N)N [RRPRPRPRPWWWW]
MIC [11]: 11.7 µM (≈ 22.6 µg/mL) | MIC [12]: 4.14 µM (≈ 8 µg/mL) | MIC [13]: ≥ 33.1 µM | MIC (Escherichia coli): 8.28 µM (≈ 16 µg/mL) | MIC [14]: 8.28 µM (≈ 16 µg/mL) | MIC (Streptococcus pyogenes): 11.7 µM (≈ 22.6 µg/mL) | MIC (Pseudomonas aeruginosa): 66.2 µM (≈ 128 µg/mL) | MIC [5]: 33.1 µM (≈ 64 µg/mL) | MIC [15]: 8.28 µM (≈ 16 µg/mL) | MIC [16]: 4.14 µM (≈ 8 µg/mL) | MIC (Escherichia coli ESBL): 16.6 µM (≈ 32 µg/mL) | MIC [17]: 8.28 µM (≈ 16 µg/mL) | MIC [8]: 8.28 µM (≈ 16 µg/mL) | MIC [18]: 4.14 µM (≈ 8 µg/mL) | MIC [10]: 8.28 µM (≈ 16 µg/mL) | MIC (Staphylococcus aureus): 11.7 µM (≈ 22.6 µg/mL)

The remaining lines, values ahead:

MIC [19]: ≥ 50 µM | MIC [20]: 25 µM (≈ 60.5 µg/mL) | MIC [21]: 5 µM (≈ 12.1 µg/mL) | MIC [22]: 1.25 µM (≈ 3.02 µg/mL) | MIC [23]: ≥ 50 µM | MIC [24]: ≥ 50 µM | MIC [25]: 1.5 µM (≈ 3.63 µg/mL) | MIC [26]: 5 µM (≈ 12.1 µg/mL) | MIC [27]: 5 µM (≈ 12.1 µg/mL) | MIC [28]: 1.25 µM (≈ 3.02 µg/mL) | MIC [29]: 5 µM (≈ 12.1 µg/mL) | MIC [9]: 25 µM (≈ 60.5 µg/mL) | MIC [10]: 2.5 µM (≈ 6.05 µg/mL) | MIC [30]: 5 µM (≈ 12.1 µg/mL)
Compound: CC[C@H](C)[C@H](NC(=O)CNC(=O)[C@H](CCCN=C(N)N)NC(=O)[C@H](Cc1ccccc1)NC(=O)[C@H](CC(C)C)NC(=O)[C@H](Cc1cnc[nH]1)NC(=O)CNC(=O)[C@H](Cc1ccccc1)NC(=O)[C@@H](N)Cc1ccccc1)C(=O)N[C@H](C(=O)N[C@@H](CC(N)=O)C(=O)N[C@H](C(=O)NCC(=O)N[C@@H](CCCCN)C(=O)N[C@@H](Cc1cnc[nH]1)C(=O)N[C@H](C(=O)N[C@@H](Cc1cnc[nH]1)C(=O)NCC(=O)N[C@@H](CC(C)C)C(=O)N[C@@H](CC(C)C)C(=O)N[C@@H](CO)C(=O)NCC(N)=O)[C@@H](C)CC)C(C)C)[C@@H](C)CC [FFGHLFRGIINVGKHIHGLLSG]

MIC [1]: ≥ 40 µM | MIC [31]: 9.99 µM (≈ 23.7 µg/mL) | MIC [32]: 9.99 µM (≈ 23.7 µg/mL) | MIC (Klebsiella pneumoniae): 3.37 µM (≈ 8 µg/mL) | MIC (Escherichia coli): 3.37 µM (≈ 8 µg/mL) | MIC [33]: 5 µM (≈ 11.8 µg/mL) | MIC [3]: 6.75 µM (≈ 16 µg/mL) | MIC [34]: ≥ 40 µM | MIC (Streptococcus pyogenes): 3.37 µM (≈ 8 µg/mL) | MIC [35]: 3.37 µM (≈ 8 µg/mL) | MIC (Pseudomonas aeruginosa): 27 µM (≈ 64 µg/mL) | MIC [36]: ≥ 40 µM | MIC [37]: 5 µM (≈ 11.8 µg/mL) | MIC [5]: 27 µM (≈ 64 µg/mL) | MIC [6]: 0.843 µM (≈ 2 µg/mL) | MIC [38]: 0.843 µM (≈ 2 µg/mL) | MIC (Candida krusei ATCC 6258): 5 µM (≈ 11.8 µg/mL) | MIC (Acinetobacter baumannii): 1.69 µM (≈ 4 µg/mL) | MIC [17]: > 54 µM | MIC (Enterococcus faecalis): ≥ 54 µM | MIC [9]: > 54 µM | MIC (Staphylococcus aureus): > 54 µM | MIC [39]: 5 µM (≈ 11.8 µg/mL)
Compound: CC[C@H](C)[C@H](NC(=O)[C@H](CCCCN)NC(=O)[C@H](CCCCN)NC(=O)[C@H](CC(C)C)NC(=O)[C@H](CCCN=C(N)N)NC(=O)[C@H](CCCCN)NC(=O)[C@@H](N)CCCCN)C(=O)N[C@@H](Cc1ccccc1)C(=O)N[C@@H](CCCCN)C(=O)N[C@@H](CCCCN)C(=O)N1CCC[C@H]1C(=O)N[C@@H](CCSC)C(=O)N[C@H](C(=O)N[C@H](C(=O)NCC(=O)N[C@H](C(=O)N[C@H](C(=O)N[C@H](C(=O)N1CCC[C@H]1C(=O)N[C@@H](Cc1ccccc1)C(N)=O)[C@@H](C)CC)[C@@H](C)O)C(C)C)[C@@H](C)CC)C(C)C [KKRLKKIFKKPMVIGVTIPF]

MIC [1]: 16 µM (≈ 32.8 µg/mL) | MIC [2]: 16 µM (≈ 32.8 µg/mL) | MIC [40]: 4 µM (≈ 8.21 µg/mL) | MIC [3]: 8 µM (≈ 16.4 µg/mL) | MIC [5]: > 128 µM | MIC (Candida krusei ATCC 6258): 16 µM (≈ 32.8 µg/mL) | MIC [41]: 16 µM (≈ 32.8 µg/mL) | MIC [8]: > 128 µM
Compound: CC[C@H](C)[C@H](NC(=O)[C@H](C)NC(=O)CNC(=O)[C@H](Cc1ccccc1)NC(=O)[C@@H](NC(=O)[C@@H](N)CC(=O)O)[C@@H](C)CC)C(=O)N[C@@H](Cc1c[nH]c2ccccc12)C(=O)N1CCC[C@H]1C(=O)N[C@@H](CC(C)C)C(=O)N[C@@H](C)C(=O)N[C@@H](CC(C)C)C(=O)NCC(=O)N[C@@H](C)C(=O)N[C@@H](CC(C)C)C(=O)N[C@@H](CCCCN)C(=O)N[C@@H](CC(N)=O)C(=O)N[C@@H](CC(C)C)C(=O)N[C@H](C(=O)N[C@@H](CCCCN)C(N)=O)[C@@H](C)CC [DIFGAIWPLALGALKNLIK]
